Results published in ChEMBL document CHEMBL1147284, “Alkaloids from the Leaves of Prosopis juliflora” (J Nat Prod, 1989).
Calls of active or inactive are those of the source.

Columns and labels:
Type in all cases: functional, organism-based
[1] = test system: Shigella sonnei; assay: Antibacterial activity against Shigella sonnei YER HER 1048 after 24 hrs
[2] = test system: Escherichia coli; assay: Antibacterial activity against Escherichia coli 11303 HER 1024 after 24 hrs
[3] = test system: Pseudomonas aeruginosa; assay: Antibacterial activity against Pseudomonas aeruginosa PAO1 HER 1018 after 24 hrs
[4] = test system: Klebsiella pneumoniae; assay: Antibacterial activity against Klebsiella pneumoniae C3 HER 1111 after 24 hrs
[5] = test system: Escherichia coli; assay: Antibacterial activity against Escherichia coli K125 HER 1037 after 24 hrs
[6] = test system: Staphylococcus aureus; assay: Antibacterial activity against Staphylococcus aureus B827 after 24 hrs

Measured: Activity

C[C@@H]1N[C@H](CCCCCCCCCCc2cc(CCCCCCCCC[C@@H]3CC[C@H](O)[C@H](C)N3)c[n+]3c2C=CC3)CC[C@@H]1O
active: [1] | [2] | [3] | [4] | [5] | [6]
